Patent US20220390432A1, “METHODS OF CHARACTERIZING AND UTILIZING AGENT-CONDENSATE INTERACTIONS” (Whitehead Institute for Biomedical Research, priority 2019, published 2022)
Entries after “also recorded” stand apart in the source; their conditions may differ.

What was measured:
[1] = biological target: T1, MED1 (Homo sapiens, UniProt Q15648); test: In vitro droplet assay, small molecule partitioning into MED1 condensates; format: binding; conditions: for partitioning / incorporation into MED1 droplets: confocal fluorescence, Example 2: 125 mM NaCl, 10% PEG, 10 μM protein, fluorescent or fluorescently labeled drug
T1 construct: MED1—amino acids 600-1581; 6xHis (N); made in house; host or cells: LOBSTR cells (E. coli)
Description: (§1) Recombinant BFP, GFP, or mCherry fusion proteins were concentrated and desalted to an appropriate protein concentration and 125 mM NaCl using Amicon Ultra centrifugal filters (30K MWCO, Millipore). Recombinant protein was added too. […] The protein solution was immediately loaded onto glass bottom 384 well plate (Cellvis P384-1.5H-N) and imaged with an Andor confocal microscope with a 150× objective. Unless indicated, images presented are of droplets settled on the glass coverslip.
(§2) Drug and small molecule concentrations used in the droplet experiments are as follows:
To analyze in vitro droplet experiments, custom Python scripts using the scikit-image package were written to identify droplets and characterize their size, shape and intensity. Droplets were segmented from average images of captured channels on various criteria: (1) an intensity threshold that was three s.d. above the mean of the image; (2) size thresholds (20 pixel minimum droplet size); and (3) a minimum circularity (circularity=4π·areaperimeter2) (circularity=4π·areaperimeter2) of 0.8 (1 being a perfect circle). After segmentation, mean intensity for each droplet was calculated while excluding pixels near the phase interface, and background-corrected by subtracting intensity of dark images of droplet formation buffer only. Droplets identified in the channel of the fluorescent protein from ten independent fields of view were quantified for each experiment. The maximum intensity of signal within the droplets was calculated for each channel, the maximum intensity in the drug channel was termed “maximum drug intensity”. To obtain the intensity of drug or dye alone in the diffuse state (termed “diffuse drug intensity”), the compound was added to droplet formation buffer at same concentration used in the droplet assay. This was then imaged on a confocal fluorescent microscope. The resulting image was processed in FIJI to obtain the fluorescent intensity of the field. To obtain the fluorescent intensity of protein droplets that bleed through in the drug channel (termed “background intensity”) protein droplets were imaged in the fluorescent channel in which the drug fluoresces and processed as above to obtain the average maximum intensity within the droplet across 10 images. The enrichment ratio was obtained by the following formula [(maximum drug intensity)−(background intensity)]/(diffuse drug intensity). The box plots show the distributions of all droplets. Each dot represents an individual droplet.

[2] = tested on: nucleolus; conditions: references (35, 36); cited from earlier work
[3] = biological target: T2, NPM1 (Homo sapiens, UniProt P06748); test: In vitro droplet assay, small molecule partitioning into NPM1 condensates; format: binding; conditions: 125 mM NaCl, 10% PEG, 10 μM protein
T2 construct: NPM1—full length, amino acids 1-294; 6xHis (N); made in house; host or cells: LOBSTR cells (E. coli)
Description: as §1, §2
(§3) To analyze in vitro droplet experiments, custom Python scripts using the scikit-image package were written to identify droplets and characterize their size, shape and intensity. […] After segmentation, mean intensity for each droplet was calculated while excluding pixels near the phase interface, and background-corrected by subtracting intensity of dark images of droplet formation buffer only. Droplets identified in the channel of the fluorescent protein from ten independent fields of view were quantified for each experiment. The maximum intensity of signal within the droplets was calculated for each channel, the maximum intensity in the drug channel was termed “maximum drug intensity”. […]

[4] = biological target: T3, FIB1 (Homo sapiens, UniProt P22087); test: In vitro droplet assay, small molecule partitioning into FIB1 condensates; format: binding; conditions: 125 mM NaCl, 10% PEG, 10 μM protein
T3 construct: FIB1—full length, amino acids 1-321; 6xHis (N); made in house; host or cells: LOBSTR cells (E. coli)
Description: as §1, §2, §3

[5] = tested on: MED1, BRD4, and POL2 condensates in HCT116 colon cancer cell lines; test: Small molecule effects on transcriptional condensates in GFP-tagged HCT116 cells; format: cell-based, human; conditions: for effect on transcriptional condensates: MED1-GFP, BRD4-GFP, POL2-GFP HCT116
From the text: HCT116 colon cancer cell lines endogenously tagged with MED1-GFP, BRD4-GFP, POL2-GFP, or HP1a-GFP (Mock), all forming condensates in the nucleus.

[6] = Droplet formation assay of small molecule alone without any protein; format: physicochemical; conditions: without any protein added
Description: as §1, with “Recombinant protein was added too.” left out

[7] = biological target: T4, MED1 condensates (Homo sapiens, UniProt Q15648); test: Determination of partitioning by spectrophotometry and quantitative phase microscopy; format: binding; conditions: uv spectroscopy of drug remaining in solution plus condensate volume estimate
T4 construct: MED1—amino acids 600-1581; 6xHis (N); made in house; host or cells: LOBSTR cells (E. coli)
From the text: Here, an expression is derived briefly for the partition coefficient of a client molecule into a condensed phase in terms of quantities that are readily measurable experimentally. A sample composed of two coexisting phases is considered, named dilute and condensed, with volume fractions ϕdilute and […]. If a client molecule (e.g. a drug) is also present in the sample at an average concentration of ctotal, then mass conservation requires that
the ratio is estimated ctotal/cdilute from fluorescence spectroscopy measurements, as described in a subsequent section, while ϕcond, it is inferred from the lever rule (M. Rubinstein, R. H. Colby, Polymer Phyics (Oxford University Press, 2003) as follows: denoting the concentration of scaffold protein (e.g. MED1) by s, mass conservation gives stotal=sdiluteϕdilute+scondϕcond, in analogy with Eq. 1. Again using the requirement that the volume fractions of coexisting phases sum to 1, this can be rearranged to yield
where stotal and sdilute are measured spectrophotometrically from optical absorbance at 280 nm, and scond is measured from quantitative phase microscopy, using a coherence-controlled holographic microscope (Q-Phase, Telight (formerly TESCAN), Bmo, CZ) equipped with 40× dry objectives (NA=0.90). […]
where A is the measured absorbance (in Absorbance Units (AU)), I0 is the intensity of the incident light at a given wavelength, I is the transmitted intensity, L the path length through the sample, and c the concentration of the absorbing species. […] The partitioned drug was measured by using spin down assay. […] The supernatant was collected and measured the concentrations of the drug. The partitioned drug was calculated by subtracting from the total known concentration of drug added.
Quantitative phase measurements were performed using a coherence-controlled holographic microscope (Q-Phase, Telight (formerly TESCAN), Brno, CZ) equipped with 40× dry objectives (NA=0.90) as follows. […]
Q-PHASE software was used to construct compensated phase images from acquired holograms, which were subsequently analyzed in MATLAB using custom code. […]

[8] = tested on: platinated DNA at MYC locus in HCT116 cells; test: Immunofluorescence with MYC DNA FISH after JQ1 then cisplatin; format: cell-based, human; conditions: 1 μM JQ1 24 hours, then 50 μM cisplatin 6 hours
[9] = tested on: BRD4 at super-enhancers; test: Super-enhancers versus typical enhancers, gene expression and BRD4 genomic occupancy; format: cell-based
[10] = tested on: MED1 genomic occupancy in HCT116 cells; test: MED1 ChIP-seq in HCT116 cells; format: cell-based, human; conditions: JQ1 for 24 hours
[11] = biological target: T5, HP1α (Homo sapiens, UniProt P45973); test: In vitro droplet assay, small molecule partitioning into HP1α condensates; format: binding
T5 construct: HP1α—full length, amino acids 1-191; 6xHis (N); made in house; host or cells: LOBSTR cells (E. coli)
Description: as §1, §2, §3

[12] = tested on: MED1 condensate at the LAC array in U2OS cells; test: LAC binding assay, FLTX1 enrichment at tethered MED1 or HP1α; format: cell-based, human; conditions: ESR1 not expressed, 1 uM FLTX1
Description: Constructs were assembled by NEB HIFI cloning in pSV2 mammalian expression vector containing an SV40 promoter driving expression of a mCherry-LacI fusion protein. The intrinsically disordered region of MED1, HP1α, or the activation domain of ESR1 was fused by the c-terminus to this recombinant protein, joined by the linker sequence […] (SEQ ID NO: 16). For experiments comparing FLTX1 enrichment at the array, U20S-Lac cells were plated onto chambered coverglass (1.5 Borosilicate Glass, Nunc Lab-Tek, 155409) and transfected with either MED1 IDR or HP1α constructs with lipofectamine 3000 (Thermofisher L3000015). After 24 hours, cells were treated with either 1 uM FLTX1 or vehicle (DMF). […]
For analysis of Lac array data comparing MED1 or HP1α tethered, a region of interest was called using the signal in the Lac array (561 channel). The average fluorescent signal for FLTX1 (488 channel) was then measured in the region of interest and divided by the average fluorescence in the region of interest at the Lac array. […] For analysis of Lac array data for MED1 overexpression, enrichment was calculated by dividing the average fluorescent signal for MED1 immunofluorescence at the region of interest, defined by the ER tethered at the lac array, by MED1 immunofluorescence signal at a random nuclear region.

T1 sequence (Q15648 600-1581): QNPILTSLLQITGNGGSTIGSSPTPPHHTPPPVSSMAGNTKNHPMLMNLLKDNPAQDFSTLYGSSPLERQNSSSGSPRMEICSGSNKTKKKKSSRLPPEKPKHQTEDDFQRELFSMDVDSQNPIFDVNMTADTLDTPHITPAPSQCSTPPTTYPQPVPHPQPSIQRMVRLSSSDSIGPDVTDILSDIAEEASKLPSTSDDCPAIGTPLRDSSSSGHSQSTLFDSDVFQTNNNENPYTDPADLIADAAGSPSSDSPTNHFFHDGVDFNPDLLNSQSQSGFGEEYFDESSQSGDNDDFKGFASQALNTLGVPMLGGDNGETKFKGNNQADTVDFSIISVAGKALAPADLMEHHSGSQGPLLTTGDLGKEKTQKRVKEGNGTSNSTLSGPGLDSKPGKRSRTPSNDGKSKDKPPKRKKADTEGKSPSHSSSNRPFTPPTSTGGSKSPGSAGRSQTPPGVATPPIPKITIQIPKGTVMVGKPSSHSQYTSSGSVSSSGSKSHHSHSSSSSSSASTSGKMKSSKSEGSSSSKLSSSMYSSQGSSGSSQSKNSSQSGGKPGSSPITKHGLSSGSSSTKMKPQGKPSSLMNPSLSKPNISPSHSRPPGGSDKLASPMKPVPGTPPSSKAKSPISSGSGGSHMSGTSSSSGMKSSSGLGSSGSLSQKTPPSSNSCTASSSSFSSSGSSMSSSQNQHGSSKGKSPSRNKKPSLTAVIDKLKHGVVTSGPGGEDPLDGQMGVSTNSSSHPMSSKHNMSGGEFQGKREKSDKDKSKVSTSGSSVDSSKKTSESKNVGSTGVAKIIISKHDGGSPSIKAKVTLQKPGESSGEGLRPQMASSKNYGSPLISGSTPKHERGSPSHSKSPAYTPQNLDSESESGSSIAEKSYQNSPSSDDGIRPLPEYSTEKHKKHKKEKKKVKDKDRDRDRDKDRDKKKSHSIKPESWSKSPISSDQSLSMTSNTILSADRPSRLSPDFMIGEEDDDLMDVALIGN
T4 sequence (Q15648 600-1581): as above
T5 sequence (P45973 whole entry, the tested form may be a part): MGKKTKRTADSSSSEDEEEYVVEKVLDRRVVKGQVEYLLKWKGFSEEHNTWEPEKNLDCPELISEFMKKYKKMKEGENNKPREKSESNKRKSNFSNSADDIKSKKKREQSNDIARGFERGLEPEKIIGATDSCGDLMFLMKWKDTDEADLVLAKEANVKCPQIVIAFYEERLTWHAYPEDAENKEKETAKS
T3 sequence (P22087 whole entry, the tested form may be a part): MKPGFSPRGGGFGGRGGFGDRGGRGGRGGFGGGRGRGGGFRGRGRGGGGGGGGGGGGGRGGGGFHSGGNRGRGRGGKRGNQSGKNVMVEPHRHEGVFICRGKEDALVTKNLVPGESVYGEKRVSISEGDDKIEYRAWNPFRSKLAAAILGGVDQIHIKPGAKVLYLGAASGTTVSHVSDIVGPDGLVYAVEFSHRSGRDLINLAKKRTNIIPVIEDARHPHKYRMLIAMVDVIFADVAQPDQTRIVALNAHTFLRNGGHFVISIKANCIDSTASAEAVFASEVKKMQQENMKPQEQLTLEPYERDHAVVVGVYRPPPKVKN
T2 sequence (P06748 whole entry, the tested form may be a part): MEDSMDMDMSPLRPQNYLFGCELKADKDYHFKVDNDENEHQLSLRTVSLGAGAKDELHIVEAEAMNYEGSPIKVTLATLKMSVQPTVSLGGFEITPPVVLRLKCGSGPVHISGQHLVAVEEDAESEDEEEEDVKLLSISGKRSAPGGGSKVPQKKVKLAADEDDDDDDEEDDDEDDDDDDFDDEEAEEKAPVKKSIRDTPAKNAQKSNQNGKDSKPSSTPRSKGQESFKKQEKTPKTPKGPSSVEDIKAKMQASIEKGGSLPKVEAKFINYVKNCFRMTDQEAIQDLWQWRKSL

| Compound | partitioning / incorporation into MED1 droplets [1] | subcellular concentration [2] | partitioning into NPM1 condensates [3] | partitioning into FIB1 condensates [4] | effect on transcriptional condensates [5] | droplet formation of small molecule alone [6] | partition ratio in MED1 condensates [7] | platinated DNA at the MYC locus after JQ1 treatment [8] | effect on transcriptional condensates, long exposure ([5]; long exposure (e.g., 24 hours)) | MED1 condensates after JQ1 ([5]; mEGFP-MED1 tagged HCT116 cells, JQ1 for 24 hours) | effect on transcriptional condensates, short exposure ([5]; short exposure (e.g., 5 minutes)) | BRD4 genomic occupancy, super-enhancers versus typical enhancers [9] | sensitivity of gene expression by super-enhancers versus typical enhancers [9] | MED1 ChIP-Seq at MYC after JQ1 [10] | drug concentration in larger MED1 condensates ([1]; 20 μM (High) vs 5 μM (Low) MED1, 100 μM FLTX1) | partitioning / incorporation into HP1α droplets [11] | FLTX1 enrichment at MED1 condensate tethered to the LAC array [12] |
| --- | --- | --- | --- | --- | --- | --- | --- | --- | --- | --- | --- | --- | --- | --- | --- | --- | --- |
| O=C1c2c(O)ccc(O)c2C(=O)c2c(NCCNCCO)ccc(NCCNCCO)c21 [Mitoxantrone] | concentrated; also recorded: immediately incorporate into MED1 droplets | concentrate in the nucleolus | concentrated | concentrated | global dissolution of condensates; also recorded: cause condensate dissolution | diffuse fluorescent signal | approximately 100 fold |  |  |  |  |  |  |  |  |  |  |
| Cc1sc2c(c1C)C(c1ccc(Cl)cc1)=N[C@@H](CC(=O)OC(C)(C)C)c1nnc(C)n1-2 [JQ1, (S)-tert-butyl 2-(4-(4-chlorophenyl)-2,3,9-trimethyl-6H-thieno[3,2-ƒ][1,2,4]triazolo[4,3-a][1,4]diazepin-6-yl)acetate] |  |  |  |  | reduces the number of, or eliminates | diffuse fluorescent signal |  | concomitant reduction in platinated DNA at the MYC oncogene; also recorded: loss of signal for platinated DNA | genomic release and consolidation of condensates | loss of MED1 condensates; also recorded: diminution of MED1 condensates | eviction of some condensate components | reduces BRD4 genomic occupancy in super-enhancers to a greater extent than typical enhancers | more sensitive | loss of MED1 loading |  |  |  |
| CC/C(=C(\c1ccccc1)c1ccc(OCCN(C)c2ccc([N+](=O)[O-])c3nonc23)cc1)c1ccccc1 [FLTX1] | concentrated preferentially in MED1 droplets; also recorded: incorporated into MED1 containing condensates; also recorded: incorporates into MED1 droplets |  |  |  |  | diffuse fluorescent signal |  |  |  |  |  |  |  |  | lower concentrations of the drug | does not incorporate | concentrated FLTX1 at the site of the condensate; also recorded: concentrates in MED1 condensates in cells |
